Data: US6369109B1, “Betulinic acid and derivatives thereof useful for the treatment of neuroectodermal tumor” (Deutsches Krebsforschungszentrum Stiftung des Offentlichen …, priority 1998, dated 2002)
Residues, ends and D or L forms follow the SMILES beside them. *: point of attachment. Cbz = O=C(OCc1ccccc1)*; CH2F = FC*

How the values were obtained:
[1] = test system: FLICE, CPP32 and PARP in SH-EP neuroblastoma cells; assay: Western blot of FLICE (caspase-8), CPP32 (caspase-3) and PARP cleavage; assay type: cell-based, human
Method: Cells were lysed for 30 min at 4° C. in PBS with 0.5% Triton X (Serva, Heidelberg, Germany) and 1 mM phenylmethylsulfonyl fluoride (Sigma, Deisenhofen, Germany) followed by high-speed centrifugation. Membrane proteins were eluted in buffer containing 0.1 M glycine. PH 3.0 and 1.5 M Tris, pH 8.8. Protein concentration was assayed using bicinchoninic acid (Pierce Chemical Co., Rockford, Ill.). Forty μg of protein per lane were separated by 12% SDS-PAGE and electroblotted onto nitrocellulose (Amersham, Braunschweig, Germany). Equal protein loading was controlled by Ponceau red staining of membranes. After blocking for 1 h in PBS supplemented with 2% BSA (Sigma) and 0.1% Tween 20 (Sigma), immunodetection of FLICE, CPP32, PARP, Bax, Bcl-x, Bcl-2, and p53 protein was done using mouse anti-FLICE monoclonal antibody C15 (1:5 dilution of hybridoma supernatant), mouse anti-CPP32 monoclonal antibody (1:1000, Transduction Laboratories, Lexington, KY), rabbit anti-PARP polyclonal antibody (1:10000, Enzyme Systems Products), rabbit anti-Bax polyclonal antibody (1:500, Calbiochem, Bad Soden, Germany), rabbit anti-Bcl-x polyclonal antibody (1:1000, Santa Cruz Biotechnology, Santa Cruz, Calif.), mouse anti-p53 monoclonal antibody (1:10000, Transduction Laboratories), and goat anti-mouse 1gG or goat antirabbit IgG (1:5000, Santa Cruz Biotechnology), ECL (Amersham) was used for detection.
FIG. 2B and FIG. 2C show the cleavage of FLICE, CPP32 and PARP. SH-EP neuroblastoma cells were treated with 10 μg/ml betulinic acid for indicated times or with 0.5 μg/ml doxorubicin for 24 h. Forty μg of protein per lane, isolated from cell lysates, were separated by 12% SDS-PAGE, Immunodetection of FLICE (FIG. 2B). CPP32 (FIG. 2C), and PARP (C) proteins was performed by mouse anti-FLICE monoclonal antibody, mouse anti-CPP32 monoclonal antibody, or rabbit anti-PARP polyclonal antibody and ECL.
SH-EP neuroblastoma cells were treated with 10 μg/ml betulinic acid for 24 h with or without 60 μM zVAD-frnk. Western blot analysis for FLICE and PARP cleavage was performed as described for FIG. 2B.
Cells were lysed for 30 mm at 4° C. in PBS with 0.5% Triton X (Serva, Heidelberg, Germany) and 1 mM PMSF (Sigma, Deisenhofen, Germany) followed by high-speed centrifugation. Membrane proteins were eluted in buffer containing 0.1 M glycine, pH 3.0 and 1.5 M Tris, pH 8.8. Protein concentration was assayed using bicinchoninic acid (Pierce, Rockford, Ill.). 40 μg protein per lane was separated by 12% or 15% SDS-PAGE and electroblotted onto nitrocellulose (Amersham, Braunschweig, Germany). Equal protein loading was controlled by Ponceau red staining of membranes. […]
For determination of mitochondrial membrane potential, cells (5×10^5/ml) were incubated with 3,3′-dihexyloxacarbocyanide iodide (DiOC6(3), 40 nM, Molecular Probes, Inc., Eugene, Oreg.) for 15 min at 37° C. and analyzed on a flow cytometer (FACScan) (Zamzarni et al., 1996 J. Exp. Med. 183:1533-44). […]

[2] = test system: SH-EP neuroblastoma cells; assay: Mitochondrial potential (DiOC6(3)), ROS (HE) and lipid peroxidation (NAO) by flow cytometry; assay type: cell-based, human; conditions: FIG. 12B
Method: The cationic lipophilic fluorochrome DiOC6(3)(460 ng/ml, Molecular Probes, Eugene, Oreg.) was used to measure the Δ¥m. HE(126 ng/ml. Molecular probes) was used to determine ROS generation, and NAO (94 ng/ml, Molecular Probes) was used to determine lipid peroxidation. Kroemer et al, 1997, Immunol. Today. 18:44-51. Cells were incubated for 12 min at 37° C. in the presence of the fluorochromes, washed in PBS/1% FCS, and immediately analyzed by flow cytometry (FACScan, Becton Dickinson). DiOC6(3) and NAO fluorescence were recorded in fluorescence 1; He fluorescence was assessed in fluorescence 3. The percentage of cells with low mitochondrial potential or enhanced ROS production was calculated in comparison to untreated control cells.
SH-EP neuroblastoma cells were treated with 10 μg/ml betulinic acid for the indicated times. Cells were stained with the fluorochrome DiOC6(3) to determine ΔΨm and with HE to determine ROS generation and analyzed by flow cytometry. Fold increase in cells with low ΔΨm [DiOC6(3)^low] or with enhanced ROS production (HE+) is shown.
SH-EP neuroblastoma cells treated with 10 μg/ml […] for 24 h (heavy line) or control cells (thin line) were strained with NAO to assess oxidized cardiolipin and analyzed by flow cytomety.
For determination of mitochondrial membrane potential, cells (5×10^5/ml) were incubated with 3,3′-dihexyloxacarbocyanide iodide (DiOC6(3), 40 nM, Molecular Probes, Inc., Eugene, Oreg.) for 15 min at 37° C. and analyzed on a flow cytometer (FACScan) (Zamzarni et al., 1996 J. Exp. Med. 183:1533-44). For cell sorting, cells were stained with DiOC6(3) and sorted into DiOC6(3)^high and DiOC6(3)^low cells on a cytofluorometer (FACS Vantage, Becton Dickinson). As a control, cells were treated with the uncoupling agent carbonyl cyanide m-chlorophenylhydrazone (mCICCP, 200 μM, Sigma).
SHEP cells transfected with Bcl-2 or BCl-XL or a neomycin resistance vector only (Neo) were treated with 0.5 μg/ml Doxorubicin or 10 μg/ml Betulinic acid for 48 h (A) or 24 h (B and C). Cells transfected with a neomycin resistance vector only (Neo) were treated in the presence or absence of 50 μm BA or 60 μm zVAD-fmk. Nuclear apoptosis was determined by FACS analysis or propidium iodide-stained DNA content in intact cells (A) or in a CFS incubating isolated nuclei with mitochondria from cells treated with Doxo or betulinic acid (C). ΔΨm was determined by staining cells with the potential-sensitive fluorochrome DiOC6(3) (B).

[3] = 0.5 μg/ml Doxo or 10 μg/ml Bet A, 24 h, FIG. 14A

**Q.** What does the source list for `COC(=O)C[C@H](NC(=O)[C@H](C)NC(=O)[C@@H](NC(=O)OCc1ccccc1)C(C)C)C(=O)CF` [zVAD-fmk, benzyloxycarbonyl-Val-Ala-Asp-Fluoromethylketone] (Cbz-Val-Ala-Asp(OMe)-CH2F)?
**A.** effect of inhibitor on betulinic acid-induced cleavage of FLICE and PARP ([1]; 60 μM zVAD-fmk, 10 μg/ml betulinic acid 24 h, FIG. 2E): inhibited cleavage of FLICE and PARP; effect of inhibitor on betulinic acid-induced ΔΨm dissipation ([2]; 60 μM zVAD-fmk): had no effect; effect of inhibitor on doxorubicin-induced loss of ΔΨm ([2]; 60 μM zVAD-fmk): both inhibited

**Q.** How did the “effect of inhibitor on drug-triggered ΔΨm loss” value ([2]; 50 μM bongkrekic acid, doxorubicin or betulinic acid) turn out when `CO[C@H](C/C=C\C=C\CC/C=C/C[C@H](C)/C=C/C(=C\C(=O)O)CC(=O)O)/C(C)=C\C=C(/C)C(=O)O` [bongkrekic acid] was run?
**A.** inhibited drug-triggered nuclear fragmentation and ΔΨm loss

**Q.** Which results are given for `COc1cccc2c1C(=O)c1c(O)c3c(c(O)c1C2=O)C[C@@](O)(C(=O)CO)C[C@@H]3O[C@H]1C[C@H](N)[C@H](O)[C@H](C)O1` [doxorubicin]?
**A.** caspase-3 (and PARP) processing in Bcl-2 or Bcl-XL overexpressing cells [1, 3]: inhibited in Bcl-2 and Bcl-XL transfected cells; caspase-8 processing in Bcl-2 or Bcl-XL overexpressing cells [1, 3]: cleaved into p43 and p41 intermediates and the active p18 subunit, regardless of Bcl-2 or Bcl-XL overexpression; caspase cleavage in cells sorted into ΔΨm^high and ΔΨm^low ([1]; 0.5 μg/ml Doxorubicin or 10 μg/ml Bet A, 18 h, FIG. 14B-2): CD95-L induction and cleavage of caspase-8 was found in both ΔΨm^high and ΔΨm^low cells; cleavage of FLICE ([1]; 10 μg/ml betulinic acid, 0.5 μg/ml doxorubicin 24 h, FIG. 2B): stimulated FLICE cleavage; loss of ΔΨm in intact SHEP cells ([2]; 0.5 μg/ml doxorubicin or 10 μg/ml betulinic acid, 24 h): induced loss of ΔΨm and nuclear fragmentation
